According to patent US6432968B1 (Aventis Pharma Deutschland GmbH, priority 1994, dated 2002):

system: Human peripheral blood mononuclear cells (PBMC); experiment: Mixed human lymphocyte reaction (MLR) assay; assay type: cell-based; conditions: immunosuppressant alone, 0.5 nM, read-out: inhibition of lymphocyte proliferation
Protocol: coculture of lymphocytes of different […] (MLR=mixed lymphocyte reaction): lymphocytes containing different antigens of the HLA-DR type (=allogens) activate each other non-specifically.
100 μl of those PBMC are mixed with 100 μl of irradiated PMBC (1×10^6 cells/ml) in a well of a microtiter plate. The test substances, alone or in combination, are likewise added to the PBMC. The plates are incubated for 5 days at 37° C. in a moist atmosphere which contains 5% CO2. Then 1 μCi of ^3H-thymidine is added to the cells and they are incubated under the abovementioned conditions for a further 8 hours. The cells are then collected on glass fiber filters and the incorporated radioactivity is determined using a beta counter.
Inhibition is given in percent and referred to uninhibited controls (which correspond to 0%).
Inhibition is given in percent and referred to uninhibited controls (which correspond to 0%)

Row | Compound | inhibition at 0.0005 µM [%]
1 | C=CC[C@@H]1/C=C(\C)C[C@H](C)C[C@H](OC)[C@H]2O[C@@](O)(C(=O)C(=O)N3CCCC[C@H]3C(=O)O[C@H](/C(C)=C/[C@@H]3CC[C@@H](O)[C@H](OC)C3)[C@H](C)[C@@H](O)CC1=O)[C@H](C)C[C@@H]2OC [FK 506, Tacrolimus, reference compound] | 30
2 | CO[C@H]1C[C@@H]2CC[C@@H](C)[C@@](O)(O2)C(=O)C(=O)N2CCCC[C@H]2C(=O)O[C@H]([C@H](C)C[C@@H]2CC[C@@H](O)[C@H](OC)C2)CC(=O)[C@H](C)/C=C(\C)[C@@H](O)[C@@H](OC)C(=O)[C@H](C)C[C@H](C)/C=C/C=C/C=C/1C [RPM, rapamycin, reference compound] | 35

same assay, conditions: read-out: % inhibition of proliferation (100 μM), 100 μM, referred to uninhibited controls (0%)

Row | Compound | inhibition at 100 µM [%]
3 | CCOCn1cnc2c1c(=O)n(CCCCC(C)(C)O)c(=O)n2C [Compound 9, 7-ethoxymethyl-1-(5-hydroxy-5-methylhexyl)-3-methylxanthine] | 61
4 | CCCn1cnc2c1c(=O)n(CCCCC(C)O)c(=O)n2C (centres unmarked) [Compound 3, 1-(5-hydroxyhexyl)-3-methyl-7-propyl-xanthine] | 83
5 | CCCCCCn1c(=O)c2c(ncn2C)n(C)c1=O [Compound 14, 1-hexyl-3,7-dimethylxanthine] | 85
6 | Cn1c(=O)n(CCCCC(C)(C)O)c(=O)c2c1ncn2CC1CC1 [Compound 12, 7-cyclopropylmethyl-1-(5-hydroxy-5-methylhexyl)-3-methylxanthine] | 85
7 | CCCCn1cnc2c1c(=O)n(CCCCC(C)(C)O)c(=O)n2C [Compound 8, 1-(5-hydroxy-5-methylhexyl)-3-methyl-7-butylxanthine] | 91
8 | CCCCn1cnc2c1c(=O)n(CCCCCC(C)(C)O)c(=O)n2CC [Compound 11, 7-butyl-3-ethyl-1-(6-hydroxy-6-methylheptyl)-xanthine] | 94
